Data taken from PubChem BioAssay (NCI).
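Five concentrations, 48 hours, 96-well plates. At the GI50, growth is halved. TGI denotes the concentration required for complete inhibition of growth.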

Assays:
Assay in all cases: growth of human tumour cells (NCI), 48 h
[1] = system: TK-10 renal
[2] = system: MCF7 breast
[3] = system: PC-3 prostate
[4] = system: HCT-15 colon
[5] = system: NCI-H226 lung
[6] = system: SW-620 colon
[7] = system: MOLT-4 leukemia
[8] = system: NCI-H522 lung
[9] = system: RXF 393 renal
[10] = system: EKVX NSCLC
[11] = system: HS 578T breast
[12] = system: U251 CNS
[13] = system: T-47D breast
[14] = system: RPMI-8226 leukemia
[15] = system: SN12C renal
[16] = system: DU-145 prostate
[17] = system: IGROV1 ovarian
[18] = system: SNB-75 CNS
[19] = system: SK-MEL-2 melanoma
[20] = system: CCRF-CEM leukemia
[21] = system: SK-OV-3 ovarian
[22] = system: NCI/ADR-RES ovarian
[23] = system: SR leukemia
[24] = system: MDA-MB-435
[25] = system: UACC-62 melanoma
[26] = system: HL-60(TB) leukemia
[27] = system: KM12 colon
[28] = system: HOP-62 NSCLC
[29] = system: BT-549 breast
[30] = system: MDA-MB-231 breast
[31] = system: M14 melanoma
[32] = system: HCC-2998 colon
[33] = system: UO-31 renal
[34] = system: CAKI-1 renal
[35] = system: NCI-H460 lung
[36] = system: HCT-116 colon
[37] = system: K-562 leukemia
[38] = system: UACC-257 melanoma
[39] = system: SF-295 CNS
[40] = system: SK-MEL-28 melanoma
[41] = system: OVCAR-8 ovarian
[42] = system: SK-MEL-5 melanoma
[43] = system: 786-0 renal
[44] = system: NCI-H23 lung
[45] = system: A498 renal
[46] = system: MALME-3M melanoma
[47] = system: ACHN renal
[48] = system: SF-268 CNS
[49] = system: SF-539 CNS
[50] = system: SNB-19 CNS
[51] = system: HT29 colon
[52] = system: A549 NSCLC
[53] = system: HOP-92 NSCLC
[54] = system: LOX IMVI melanoma
[55] = system: OVCAR-3 ovarian
[56] = system: OVCAR-5 ovarian
[57] = system: OVCAR-4 ovarian
[58] = system: COLO 205 colon

Compound: NC(=O)c1c(NC(=O)c2ccccc2C(F)(F)F)sc2c1CCC(=O)C2
- GI50 [1]: 3.2 µM
- TGI [1]: > 100 µM
- GI50 [2]: 2.24 µM
- TGI [2]: 9.87 µM
- GI50 [3]: 0.307 µM
- TGI [3]: 4.43 µM
- GI50 [4]: 0.493 µM
- TGI [4]: 2.07 µM
- GI50 [5]: 1.97 µM
- TGI [5]: 4.53 µM
- GI50 [6]: 0.402 µM
- TGI [6]: 13.8 µM
- GI50 [7]: 2.02 µM
- TGI [7]: 22.3 µM
- GI50 [8]: 0.391 µM
- TGI [8]: 1.92 µM
- GI50 [9]: 1.37 µM
- TGI [9]: 3.83 µM
- GI50 [10]: 2.81 µM
- TGI [10]: 12.1 µM
- GI50 [11]: 3.04 µM
- TGI [11]: > 100 µM
- GI50 [12]: 0.99 µM
- TGI [12]: 19.1 µM
- GI50 [13]: 0.492 µM
- TGI [13]: 5.71 µM
- GI50 [14]: 0.36 µM
- TGI [14]: > 100 µM
- GI50 [15]: 2.59 µM
- TGI [15]: 12.6 µM
- GI50 [16]: 4.54 µM
- TGI [16]: > 100 µM
- GI50 [17]: 2.46 µM
- TGI [17]: 9.48 µM
- GI50 [18]: 1.95 µM
- TGI [18]: 8.2 µM
- GI50 [19]: 2.5 µM
- TGI [19]: 6.84 µM
- GI50 [20]: 0.429 µM
- TGI [20]: > 100 µM
- GI50 [21]: 3.47 µM
- TGI [21]: > 100 µM
- GI50 [22]: 2.33 µM
- TGI [22]: 18.3 µM
- GI50 [23]: 0.466 µM
- TGI [23]: > 100 µM
- GI50 [24]: 2.94 µM
- TGI [24]: 8.7 µM
- GI50 [25]: 1.29 µM
- TGI [25]: 3.19 µM
- GI50 [26]: 1.1 µM
- TGI [26]: 7.37 µM
- GI50 [27]: 3.66 µM
- TGI [27]: 14.6 µM
- GI50 [28]: 3.97 µM
- TGI [28]: > 100 µM
- GI50 [29]: 0.947 µM
- TGI [29]: 76.5 µM
- GI50 [30]: 1.95 µM
- TGI [30]: 4.3 µM
- GI50 [31]: 2.76 µM
- TGI [31]: 19.9 µM
- GI50 [32]: 2.88 µM
- TGI [32]: 12.3 µM
- GI50 [33]: 1.12 µM
- TGI [33]: 2.33 µM
- GI50 [34]: 1.39 µM
- TGI [34]: 3.05 µM
- GI50 [35]: 3.52 µM
- TGI [35]: 16 µM
- GI50 [36]: 0.493 µM
- TGI [36]: 8.14 µM
- GI50 [37]: 0.412 µM
- TGI [37]: > 100 µM
- GI50 [38]: 2.48 µM
- TGI [38]: 7.38 µM
- GI50 [39]: 2.55 µM
- TGI [39]: 7.71 µM
- GI50 [40]: 1.89 µM
- TGI [40]: 5.5 µM
- GI50 [41]: 2.6 µM
- TGI [41]: > 100 µM
- GI50 [42]: 1.78 µM
- TGI [42]: 3.45 µM
- GI50 [43]: 4.29 µM
- TGI [43]: > 100 µM
- GI50 [44]: 1.34 µM
- TGI [44]: 5.63 µM
- GI50 [45]: 9.93 µM
- TGI [45]: 40.3 µM
- GI50 [46]: 2 µM
- TGI [46]: 5.25 µM
- GI50 [47]: 1.01 µM
- TGI [47]: 2.66 µM
- GI50 [48]: 3.6 µM
- TGI [48]: > 100 µM
- GI50 [49]: 0.605 µM
- TGI [49]: 2.09 µM
- GI50 [50]: 3.74 µM
- TGI [50]: > 100 µM
- GI50 [51]: 1.97 µM
- TGI [51]: 6.65 µM
- GI50 [52]: 3.72 µM
- TGI [52]: > 100 µM

Compound: CCN1C(=O)N(CC)C2SC(N/N=C/c3ccc(F)cc3)=NC21 (stereo not drawn)
- GI50 [1]: 5.2 µM
- TGI [1]: > 100 µM
- GI50 [2]: 0.369 µM
- TGI [2]: > 100 µM
- GI50 [3]: 0.436 µM
- TGI [3]: > 52.3 µM
- GI50 [4]: 0.429 µM
- TGI [4]: > 100 µM
- GI50 [5]: 0.942 µM
- TGI [5]: > 100 µM
- GI50 [6]: 0.374 µM
- TGI [6]: > 100 µM
- GI50 [53]: 1.16 µM
- TGI [53]: > 23.3 µM
- GI50 [7]: 0.479 µM
- TGI [7]: > 100 µM
- GI50 [8]: 0.25 µM
- TGI [8]: 0.762 µM
- GI50 [10]: 0.695 µM
- TGI [10]: > 100 µM
- GI50 [54]: 0.596 µM
- TGI [54]: > 100 µM
- GI50 [11]: 0.363 µM
- GI50 [12]: 0.406 µM
- TGI [12]: > 74.3 µM
- GI50 [14]: 0.373 µM
- TGI [14]: > 100 µM
- GI50 [15]: 0.617 µM
- TGI [15]: > 100 µM
- GI50 [16]: 0.498 µM
- TGI [16]: > 100 µM
- GI50 [17]: 0.765 µM
- TGI [17]: > 100 µM
- GI50 [18]: 0.252 µM
- GI50 [19]: 0.507 µM
- TGI [19]: > 100 µM
- GI50 [20]: 0.413 µM
- TGI [20]: > 100 µM
- GI50 [55]: 0.37 µM
- TGI [55]: 2.04 µM
- GI50 [21]: 0.662 µM
- TGI [21]: > 100 µM
- GI50 [22]: 0.428 µM
- TGI [22]: > 100 µM
- GI50 [23]: 0.221 µM
- TGI [23]: > 100 µM
- GI50 [24]: 0.174 µM
- TGI [24]: 0.408 µM
- GI50 [25]: 0.437 µM
- TGI [25]: > 100 µM
- GI50 [26]: 0.268 µM
- TGI [26]: 0.927 µM
- GI50 [27]: 0.415 µM
- TGI [27]: > 62.2 µM
- GI50 [28]: 0.556 µM
- TGI [28]: > 100 µM
- GI50 [29]: 0.496 µM
- TGI [29]: 2.87 µM
- GI50 [30]: 0.955 µM
- TGI [30]: > 100 µM
- GI50 [31]: 0.296 µM
- TGI [31]: 14.4 µM
- GI50 [32]: 0.823 µM
- TGI [32]: > 100 µM
- GI50 [33]: 0.631 µM
- TGI [33]: > 100 µM
- GI50 [34]: 0.435 µM
- TGI [34]: > 100 µM
- GI50 [35]: 0.362 µM
- GI50 [56]: 0.89 µM
- TGI [56]: > 100 µM
- GI50 [36]: 0.404 µM
- TGI [36]: > 33.9 µM
- GI50 [37]: 0.361 µM
- TGI [37]: > 100 µM
- GI50 [38]: 1.26 µM
- TGI [38]: > 100 µM
- GI50 [39]: 0.348 µM
- TGI [39]: > 100 µM
- GI50 [40]: > 30 µM
- TGI [40]: > 100 µM
- GI50 [41]: 0.495 µM
- TGI [41]: > 24 µM
- GI50 [57]: 22.4 µM
- TGI [57]: > 100 µM
- GI50 [42]: 0.601 µM
- TGI [42]: > 42.2 µM
- GI50 [43]: 0.628 µM
- TGI [43]: 30.1 µM
- GI50 [44]: 0.539 µM
- TGI [44]: > 100 µM
- GI50 [45]: 0.295 µM
- TGI [45]: 0.86 µM
- GI50 [46]: 0.66 µM
- TGI [46]: > 100 µM
- GI50 [47]: 0.728 µM
- TGI [47]: > 100 µM
- GI50 [48]: 2.62 µM
- TGI [48]: > 100 µM
- GI50 [58]: 0.308 µM
- TGI [58]: 1.1 µM
- GI50 [49]: 0.321 µM
- TGI [49]: 1.43 µM
- GI50 [50]: 0.504 µM
- TGI [50]: > 100 µM
- GI50 [51]: 0.354 µM
- TGI [51]: 4.46 µM
- GI50 [52]: 0.611 µM
- TGI [52]: > 100 µM
